Test results published in US9120787B2, “HIV replication inhibitors” (priority 2011, dated 2015).

Experiments:
HIV-1Ba-L [1] = assay: Inhibition of virus replication in MAGI-CCR5 cells (β-galactosidase reporter); type: cell-based; details: HIV-1Ba-L in MAGI-CCR5 cells; for IC50: Human immunodeficiency virus 1, 48 hours, β-galactosidase reporter expression, read-out: IC50
Description: (§1) The anti-viral activity of dihydropyrimidines was shown by inhibition of virus replication in MAGI-CCR5 cells. MAGI-CCR5 cells are derived from HeLa-CD4-LTR-β-galactosidase cells. The cells have been engineered to express high levels of CD4 and CCR5 and contain one copy of the HIV-1 LTR promoter driving expression of the β-galactosidase gene upon HIV-1 Tat transactivation. On the day preceding the assay, the cells were plated at 1.0×10^4 cells per well and maintained at 37° C. and 5% CO2 in a humidified incubator. Total cell count and viability was visually assessed using a hemacytometer and trypan blue exclusion.
Compounds were evaluated at six concentrations (triplicate wells/concentration). On the day of assay setup, compound dilutions were prepared at two-times (2×) the final concentrations. Media was decanted and wells were replenished with 50 μl of 2× compounds, followed by the addition of 50 μl of diluted virus. Identical uninfected assays were prepared for parallel cytotoxicity testing.
Evaluation of Dihydropyrimidines vs. HIV-1Ba-L in MAGI-CCR5 Cells

[2] = Cytotoxicity by MTS staining in uninfected MAGI-CCR5 cells; type: cell-based; details: human, read-out: TC50
Description: as §1, with “exclusion. Compounds were evaluated at six concentrations (triplicate wells/concentration). On the day of assay setup, compound dilutions were prepared at two-times (2×) the final concentrations. Media was decanted and wells were replenished with 50 μl of 2× compounds, followed by the addition of 50 μl of diluted virus. Identical uninfected assays were prepared for parallel cytotoxicity testing.” for “exclusion.”

HIV-1Ba-L [3] = assay: HIV-1Ba-L replication in PBMCs (supernatant RT end-point); details: for TI (TC50/IC50): HIV-1Ba-L in PBMCs; for IC50: Human immunodeficiency virus 1, PBMC, 168 h
Description: Evaluation of Dihydropyrimidines vs. HIV-1Ba-L in Peripheral Blood Mononuclear Cells (PBMCs)
Cultures of pooled phytohemagglutinin stimulated peripheral blood mononuclear cells (PBMC) were seeded into a 96-well plate at plating density of 5×10^4 cells/well. Compounds were serially diluted into media in ½-log increments using a high test of […] and […] of each concentration (nine total concentrations). Cells were infected with HIV strains HIV-1Ba-L and NL4-3 at an MOI=0.1. The PBMCs were cultured for seven days in an humidified incubator maintained at 37° C., 5% CO2 atmosphere. At the assay end-point, the supernatant was collected and analyzed for reverse transcriptase activity. For the RT assay, tritiated thymidine triphosphate (3H-TTP, 80 Ci/mmol) was diluted 1:1 dH2O:Ethanol at 1 mCi/ml. Poly rA:oligo dT template:primer was prepared as a stock solution by combining 150 μl poly rA (20 mg/ml) with 0.5 mL oligo dT (20 units/ml) and 5.35 ml sterile dH2O followed by aliquoting (1.0 ml) and storage at −20° C. The RT reaction buffer contained of 125 ml 1.0 M EGTA, 125 ml dH2O, 125 ml 20% Triton X100, 50 ml 1.0 M Tris (pH 7.4), 50 ml 1.0 M DTT, and 40 ml 1.0 M MgCl2. The final reaction mixture was prepared by combining 1 part 3H-TTP, 4 parts dH2O, 2.5 parts poly rA:oligo dT stock and 2.5 parts reaction buffer. To each well, ten microliters of the reaction mixture and 15 μl of virus containing supernatant were added. The plates were incubated at 37° C. for 60 minutes. Following incubation, the reaction volume was spotted onto DE81 filter-mats, washed 5 times for 5 minutes each in a 5% sodium phosphate buffer or 2×SSC. […] were washed 2 times for 1 minute each in distilled water, 2 times for 1 minute each in 70% ethanol, and then dried. Incorporated radioactivity (counts per minute, CPM) was quantified using standard liquid scintillation techniques.

[4] = Cytotoxicity by MTS staining in PBMCs; type: cell-based; details: human, peripheral blood mononuclear cells (PBMC), MTS staining, read-out: TC50
Description: Cytotoxicity was assessed by MTS staining. At assay end-point, PBMC were stained with the addition of […] of the soluble tetrazolium-based dye MTS to determine cell viability and quantify compound toxicity. The plates were incubated 4 to 6 hrs at 37° C. Following incubation, the activity was assessed by reading absorbance values at 490/650 nm.

SMILES | TI (TC50/IC50) (HIV-1Ba-L [1]) | IC50 (HIV-1Ba-L [1]) [µM] | CC50 at 48 h [2] [µM] | TI (TC50/IC50) (HIV-1Ba-L [3]) | IC50 (HIV-1Ba-L [3]) [µM] | CC50 at 7 days [4] [µM]
CC1=C(c2nc(-c3cccc(C#N)c3)cs2)C(c2cccc(O)c2)NC(=O)N1C (stereo not drawn) [Example 68] | D (D < 10.0) | 5 to 100 | ≥ 100 | D (D < 10.0) | 5 to 100 | 50 to 100
CC1=C(c2nc(-c3ccc(C#N)cc3)cs2)C(c2ccc(Cl)nc2)NC(=O)N1 (stereo not drawn) [Example 3] | A (A = TI (TC50/IC50) ≧ 100.0) | 1 to 5 | ≥ 100 | A (A = TI (TC50/IC50) ≧100.0) | < 1 | ≥ 100
COc1ccc(-c2csc(C3=C(C)NC(=O)NC3c3ccc(-c4ccccc4)cc3)n2)cc1 (stereo not drawn) [Example 43] | D (D < 10.0) | > 100 | ≥ 100 | D (D < 10.0) | 5 to 100 | ≥ 100
CC1=C(c2nc(-c3ccc(C#N)cc3)cs2)C(c2ccc(O)cc2)NC(=O)N1 (stereo not drawn) [Example 48] | A (A = TI (TC50/IC50) ≧ 100.0) | < 1 | ≥ 100 | A (A = TI (TC50/IC50) ≧100.0) | < 1 | ≥ 100
CC1=C(c2nc(-c3ccccc3)cs2)C(c2cccc(O)c2)NC(=O)N1 (stereo not drawn) [Example 33] | D (D < 10.0) | 5 to 100 | ≥ 100 | D (D < 10.0) | 5 to 100 | 50 to 100
CC1=C(c2nc(-c3ccc(C#N)cc3)cs2)C(c2cc(O)cc(O)c2)NC(=O)N1 (stereo not drawn) [Example 80] | D (D < 10.0) | > 100 | ≥ 100 | B (B < 100.0-50.0) | 1 to 5 | ≥ 100
CC1=C(c2nc(-c3ccc(C#N)cc3)cs2)C(c2ccc(Cl)nc2Cl)NC(=O)N1 (stereo not drawn) [Example 92] | A (A = TI (TC50/IC50) ≧ 100.0) | < 1 | ≥ 100 | C (C < 50.0-10.0) | 1 to 5 | 50 to 100
CC1=C(c2nc(-c3ccc(C#N)cc3)cs2)C(c2cccc(F)c2)NC(=O)N1 (stereo not drawn) [Example 50] | C (C < 50.0 to 10.0) | 1 to 5 | ≥ 100 | A (A = TI (TC50/IC50) ≧100.0) | < 1 | ≥ 100
COc1ccc(C2NC(=O)NC(C)=C2c2nc(-c3ccc(C#N)cc3)cs2)cc1 (stereo not drawn) [Example 64] | B (B < 100.0-50.0) | < 1 | < 50 | A (A = TI (TC50/IC50) ≧100.0) | < 1 | ≥ 100
CC1=C(c2nc(-c3cccc(O)c3)cs2)C(c2cccc(O)c2)NC(=O)N1 (stereo not drawn) [Example 38] | D (D < 10.0) | 5 to 100 | 50 to 100 | D (D < 10.0) | 5 to 100 | 50 to 100
COc1cncc(C2NC(=O)NC(C)=C2c2nc(-c3ccc(C#N)cc3)cs2)c1 (stereo not drawn) [Example 26] | D (D < 10.0) | 5 to 100 | ≥ 100 | C (C < 50.0-10.0) | 1 to 5 | ≥ 100
CC1=C(c2nc(-c3ccc(C#N)cc3)cs2)C(c2ccc(N(C)C)nc2)NC(=O)N1 (stereo not drawn) [Example 91] | A (A = TI (TC50/IC50) ≧ 100.0) | < 1 | ≥ 100 | B (B < 100.0-50.0) | 1 to 5 | ≥ 100
CC1=C(c2nc(-c3ccc(C#N)cc3)cs2)C(c2ccc(Oc3ccccc3)nc2)NC(=O)N1 (stereo not drawn) [Example 90] | A (A = TI (TC50/IC50) ≧ 100.0) | < 1 | ≥ 100 | C (C < 50.0-10.0) | 1 to 5 | 50 to 100
CC(C)(C)NC(=O)[C@@H]1CN(Cc2cccnc2)CCN1C[C@@H](O)C[C@@H](Cc1ccccc1)C(=O)N[C@H]1c2ccccc2C[C@H]1O [Indinavir, reference compound] | – | – | – | >21.0 | 0.048 | > 1
CC1=C(c2nc(-c3ccc(C#N)cc3)cs2)C(c2ccc([N+](=O)[O-])cc2)NC(=O)N1 (stereo not drawn) [Example 55] | C (C < 50.0 to 10.0) | 5 to 100 | ≥ 100 | – | – | –
COc1ccc(-c2csc(C3=C(C)NC(=O)NC3c3ccccc3)n2)cc1 (stereo not drawn) [Example 39] | D (D < 10.0) | 5 to 100 | ≥ 100 | – | – | –
COc1ccc(C2NC(=O)NC(C)=C2c2nc(-c3ccc(C#N)cc3C)cs2)cn1 (stereo not drawn) [Example 85] | B (B < 100.0-50.0) | < 1 | < 50 | – | – | –
CC1=C(c2nc(-c3ccc(C#N)cc3)cs2)C(c2ccc(N(C)C)cc2)NC(=O)N1 (stereo not drawn) [Example 54] | C (C < 50.0 to 10.0) | 5 to 100 | 50 to 100 | – | – | –
CC1=C(c2nc(-c3ccc(C#N)cc3)cs2)C(c2cccnc2Cl)NC(=O)N1 (stereo not drawn) [Example 4] | C (C < 50.0 to 10.0) | 1 to 5 | ≥ 100 | – | – | –
CC1=C(c2nc(-c3ccc(C#N)cc3)cs2)C(c2ccc(F)c([N+](=O)[O-])c2)NC(=O)N1 (stereo not drawn) [Example 60] | C (C < 50.0 to 10.0) | 5 to 100 | ≥ 100 | – | – | –
CC1=C(c2nc(-c3cccc(C#N)c3)cs2)C(c2cccc(O)c2)NC(=O)N1 (stereo not drawn) [Example 66] | D (D < 10.0) | 5 to 100 | 50 to 100 | – | – | –
CC1=C(c2nc(-c3ccc(C#N)cc3)cs2)C(c2ccc(F)c(C#N)c2)NC(=O)N1 (stereo not drawn) [Example 56] | C (C < 50.0 to 10.0) | 5 to 100 | ≥ 100 | – | – | –
CC1=C(c2nc(-c3ccc(C#N)cc3)cs2)C(c2cc3ccccc3s2)NC(=O)N1 (stereo not drawn) [Example 12] | C (C < 50.0 to 10.0) | 1 to 5 | ≥ 100 | – | – | –
CC1=C(c2nc(-c3ccc(C#N)cc3)cs2)C(c2cccs2)NC(=O)N1 (stereo not drawn) [Example 14] | C (C < 50.0 to 10.0) | 5 to 100 | ≥ 100 | – | – | –
COc1ccc(-c2csc(C3=C(C)NC(=O)NC3c3ccc(Cl)nc3)n2)cc1 (stereo not drawn) [Example 41] | D (D < 10.0) | 5 to 100 | 50 to 100 | – | – | –
CC1=C(c2nc(-c3ccc(C#N)cc3)cs2)C(c2ccccn2)NC(=O)N1 (stereo not drawn) [Example 7] | C (C < 50.0 to 10.0) | 1 to 5 | ≥ 100 | – | – | –
CC1=C(c2nc(-c3ccc(C#N)cc3)cs2)C(c2cc(F)cc(F)c2)NC(=O)N1 (stereo not drawn) [Example 53] | C (C < 50.0 to 10.0) | 1 to 5 | ≥ 100 | – | – | –
COc1ccc(-c2csc(C3=C(C)NC(=O)NC3c3cccc(O)c3)n2)cc1 (stereo not drawn) [Example 46] | D (D < 10.0) | 5 to 100 | ≥ 100 | – | – | –
